Measurements as given in patent US5985878A, “Angiogenesis inhibiting pyridazinamines” (Janssen Pharmaceuticals, N.V., priority 1996, dated 1999).

Tests used:
rat aortic ring = test: Angiogenesis inhibitory activity in vitro, rat aortic ring model (microvessel formation); format: cell-based; conditions: 192 h, microvessel area following eight days in culture
Description: Angiogenosis inhibitory activity was measured in vitro using the rat aortic ring model of angiogenesis as described by Nicosia, R. F. and Ottinetti in "Laboratory Investigation", vol. 63, p. 115, 1990. The ability of compounds to inhibit microvessel formation was compared to velicle-treatedcontrol rings.

angiogenesis = test: In vivo angiogenesis inhibitory activity, Matrigel model; design: species or system warm-blooded animal; conditions: po, administered orally
Description: The in vivo angiogenesis inhibitory activity was measured using the Matrigel model, as described in U.S. Pat. No. 5,382,514. Briefly, a liquid, containing extracts of murine basement membrane and an angiogenic growth factor (e.g. VEGF, bFGF, aFGF), was injected in a warm-blooded animal where it fonns a gel matrix. After a period of time, the gel is recovered from the anmimal and angiogenesis is quantitated. The test compounds were administered orally at a dose of 0.1 mg/kg.

Row | SMILES | IC50 (rat aortic ring) [nM] | inhibition in vivo at 0.1 mg/kg (angiogenesis) [%]
1 | Cc1nsc(-c2ccc(N3CC[C@@H](c4cccc(C(F)(F)F)c4)[C@@H](C)C3)nn2)n1 (relative stereo) [Compound 108] | 0.2 | 
2 | Cc1nsc(-c2ccc(N3CCN(c4cccc(C(F)(F)F)c4)CC3)nn2)n1 [Compound 1, 3-(3-methyl-1,2,4-thiadiazol-5-yl)-6-[4-[3-(trifluoromethyl)phenyl]-1-piperazinyl]pyridazine] | 0.3 | 
3 | Cc1nsc(-c2ccc(N3CCN(c4cccc(Cl)c4)CC3)nn2)n1 [Compound 2, 3-[4-(3-chlorophenyl)-1-piperazinyl]-6-(3-methyl-1,2,4-thiadiazol-5-yl)pyridazine] | 0.6 | > 70
4 | Cc1nsc(-c2ccc(N3CCN(c4cccc(Cl)c4)C(C)C3)nn2)n1 (stereo not shown) [Compound 13] | 0.8 | 
5 | Cc1nsc(-c2ccc(N3CCN(c4cc(Cl)cc(Cl)c4)CC3)nn2)n1 [Compound 23] | 0.05 | 
6 | Cc1nsc(-c2ccc(N3CCN(c4cccc(Cl)c4Cl)CC3)nn2)n1 [Compound 24] | 0.3 | 
7 | Cc1nsc(-c2ccc(N3CCN(c4cc(Cl)ccc4Cl)CC3)nn2)n1 [Compound 27] | 0.2 | 
8 | Cc1nsc(-c2ccc(N3CCC(c4cccc(C(F)(F)F)c4)C3)nn2)n1 (stereo not shown) [Compound 30] |  | > 70
9 | Cc1nsc(-c2ccc(N3CCC(c4cccc(C(F)(F)F)c4)CC3)nn2)n1 [Compound 31, 3-(3-methyl-1,2,4-thiadiazol-5-yl)-6-[4-[3-(trifluoromethyl)phenyl]-1-piperidinyl]pyridazine] | 0.052 | > 70
10 | Cc1nsc(-c2ccc(N3CCCC(c4cccc(C(F)(F)F)c4)CC3)nn2)n1 (stereo not shown) [Compound 32] | 0.9 | 
11 | Cc1nsc(-c2ccc(N3CCN(C4CCN(c5cccc(C(F)(F)F)c5)CC4)CC3)nn2)n1 [Compound 44] | 0.7 | 
12 | Cc1nsc(-c2ccc(N3CCC(Nc4cccc(C(F)(F)F)c4)CC3)nn2)n1 [Compound 47] |  | > 70
13 | Cc1nsc(-c2ccc(N3CCC(OCc4cccc(C(F)(F)F)c4)CC3)nn2)n1 [Compound 48] | 0.5 | 
14 | Cc1nsc(-c2ccc(N3CCC(N4CCN(c5cccc(C(F)(F)F)c5)CC4)CC3)nn2)n1 [Compound 53, 3-(3-methyl-1,2,4-thiadiazol-5-yl)-6-[4-[4-[3-(trifluoromethyl)phenyl]-1-piperazinyl]-1-piperidinyl]pyridazine] | 0.3 | > 70
15 | Cc1nsc(-c2ccc(N3CCC(OC(c4ccccc4)c4ccccc4)CC3)nn2)n1 [Compound 54] |  | > 70
16 | Cc1nsc(-c2ccc(N3CCC(COc4cccc(Cl)c4)CC3)nn2)n1 [Compound 56] | 0.9 | 
17 | Cc1nsc(-c2ccc(N3CC=C(c4cccc(C(F)(F)F)c4)CC3)nn2)n1 [Compound 66] | 0.3 | 
18 | Cc1nsc(-c2ccc(N3CCN(c4cccc(Br)c4)CC3)nn2)n1 [Compound 72] | 0.5 | 
19 | Cc1nsc(-c2ccc(N3CCN(c4cc(C(F)(F)F)cc(C(F)(F)F)c4)CC3)nn2)n1 [Compound 74] | 0.05 | > 70

Row | SMILES | IC50 (rat aortic ring) [nM] | inhibition in vivo at 0.1 mg/kg (angiogenesis) [%]
20 | COc1ccc(Cl)c(N2CCN(c3ccc(-c4nc(C)ns4)nn3)CC2)c1 [Compound 75] | 0.6 | > 70
21 | Cc1nsc(-c2ccc(N3CCN(c4ccccc4C(F)(F)F)CC3)nn2)n1 [Compound 76] | 0.2 | 
22 | Cc1nsc(-c2ccc(N3CCN(c4cc(Cl)c(Cl)cc4Cl)CC3)nn2)n1 [Compound 82] | 0.8 | > 70
23 | Cc1nsc(-c2ccc(N3CCN(c4ccc(Br)cc4[N+](=O)[O-])CC3)nn2)n1 [Compound 85] | < 0.1 | 
24 | Cc1nsc(-c2ccc(N3CCN(c4ccc(Br)c(C(F)(F)F)c4)CC3)nn2)n1 [Compound 88, 3-[4-[4-bromo-3-(trifluoromethyl)phenyl]-1-piperazinyl]-6-(3-methyl-1,2,4-thiadiazol-5-yl)pyridazine] |  | > 70
25 | Cc1nsc(-c2ccc(N3CCC(c4cc(C(F)(F)F)cc(C(F)(F)F)c4)CC3)nn2)n1 [Compound 111] | 0.2 | 
26 | Cc1nsc(-c2ccc(N3CCC(C(=O)c4cccc(C(F)(F)F)c4)CC3)nn2)n1 [Compound 130] | 0.3 | 
27 | Cc1nsc(-c2ccc(N3CCC(Cc4cccc(C(F)(F)F)c4)CC3)nn2)n1 [Compound 132] | 0.2 | 
28 | Cc1nsc(-c2ccc(N3CCC(C(O)c4cccc(C(F)(F)F)c4)CC3)nn2)n1 (stereo not shown) [Compound 134] | 0.6 | > 70
29 | Cc1nsc(-c2ccc(N3CCC(C(=O)c4cccc(Cl)c4)CC3)nn2)n1 [Compound 135] | 0.5 | 
30 | Cc1nsc(-c2ccc(N3CCC(N(C)Cc4cccc(C(F)(F)F)c4)CC3)nn2)n1 [Compound 137] | 0.5 | 
31 | Cc1nsc(-c2ccc(N3CCC(C(C#N)c4cccc(Cl)c4)CC3)nn2)n1 (stereo not shown) [Compound 138] | 0.2 | > 70
32 | Cc1nsc(-c2ccc(N3CCC(Sc4cccc(Cl)c4)CC3)nn2)n1 [Compound 139] | 0.5 | 
33 | Cc1nsc(-c2ccc(N3CCC(N(C)c4cccc(C(F)(F)F)c4)CC3)nn2)n1 [Compound 142] | 0.3 | 
34 | Cc1nsc(-c2ccc(N3CCC(N4CCN(c5cc(Cl)cc(Cl)c5)CC4)CC3)nn2)n1 [Compound 160] | 0.2 | 
35 | Cc1nsc(-c2ccc(N3CCC(N4CCN(c5cc(C(F)(F)F)cc(C(F)(F)F)c5)CC4)CC3)nn2)n1 [Compound 161] | < 0.1 | 
36 | Cc1nsc(-c2ccc(N3CCC(Nc4cccc(C(F)(F)F)c4)C3)nn2)n1 (stereo not shown) [Compound 169] | 0.8 | 
37 | Cc1nsc(-c2ccc(N3C4CCC3CC(c3cccc(C(F)(F)F)c3)C4)nn2)n1 (stereo not shown) [Compound 177] | 0.7 | > 70
